Source: patent US20020111274A1, “1-alkyl-3-[1-(substituted phenyl) benzotriazol-6-yl] uracils” (BASF Aktiengesellschaft, priority 2000, published 2002)

Experiments:
Parameters in all cases: scale not given here
[1] = tested on: IPOHE Morningglory, Ivyleaf; assay: Preemergence herbicidal evaluation, IPOHE; type: in vivo, Ipomoea hederacea, (L.) Jacq.; details: preemergence
Outline: (§1)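 Visual ratings were taken four to five weeks after application. Before that, cups sown with seed in potting soil received a spray of compound dissolved in aqueous acetone, equivalent to about 0.013 to 0.800 kg/ha, and stood on greenhouse benches under conventional care.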

GLXMAW Soybean, Williams [2] = assay: Preemergence herbicidal evaluation, GLXMAW; type: in vivo, Glycine max, (L.) Merr. cv Williams; details: preemergence
Outline: as §1

ABUTH Velvetleaf = assay: Postemergence herbicidal evaluation, ABUTH; type: in vivo, Abutilon theophrasti, Medic.; details: postemergence spray, rated about two-three weeks after treatment
Outline: (§2)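 Ratings from greenhouse plants scored about two to three weeks after a foliar spray; data from multiple tests averaged. Seedlings about two weeks old received roughly 0.006–0.400 kg/ha active compound in 80/20 acetone/water with 1.0% methylated seed oil.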

[3] = tested on: CHEAL Lambsquarters, Common; assay: Postemergence herbicidal evaluation, CHEAL; type: in vivo, Chenopodium album, L.; details: postemergence spray, rated about two-three weeks after treatment
Outline: as §2

CASOB Sicklepod [4] = assay: Preemergence herbicidal evaluation, CASOB; type: in vivo, Cassia obtusifolia, L.; details: preemergence
Outline: as §1

GALAP Galium [5] = assay: Preemergence herbicidal evaluation, GALAP; type: in vivo, Galium aparine; details: preemergence
Outline: as §1

[6] = tested on: IPOHE Morningglory, Ivyleaf; assay: Postemergence herbicidal evaluation, IPOHE; type: in vivo, Ipomoea hederacea, (L.) Jacq.; details: postemergence spray, rated about two-three weeks after treatment
Outline: as §2

GALAP Galium [7] = assay: Postemergence herbicidal evaluation, GALAP; type: in vivo, Galium aparine; details: postemergence spray, rated about two-three weeks after treatment
Outline: as §2

SETVI Foxtail, Green = assay: Preemergence herbicidal evaluation, SETVI; type: in vivo, Setaria viridis, (L.) Beau; details: preemergence
Outline: as §1

ORYSAT Rice, Tebonnet = assay: Preemergence herbicidal evaluation, ORYSAT; type: in vivo, Oryza sativa, (L.); details: preemergence
Outline: as §1

[8] = tested on: CHEAL Lambsquarters, Common; assay: Preemergence herbicidal evaluation, CHEAL; type: in vivo, Chenopodium album, L.; details: preemergence
Outline: as §1

CASOB Sicklepod [9] = assay: Postemergence herbicidal evaluation, CASOB; type: in vivo, Cassia obtusifolia, L.; details: postemergence spray, rated about two-three weeks after treatment
Outline: as §2

GLXMAW Soybean, Williams [10] = assay: Postemergence herbicidal evaluation, GLXMAW; type: in vivo, Glycine max, (L.) Merr. cv Williams; details: 0.008 kg/ha, postemergence spray, rated about two-three weeks after treatment
Outline: as §2

`Cc1ccc(OCC(=O)O)cc1-n1nnc2cc(F)c(-n3c(=O)cc(C(F)(F)F)n(C)c3=O)cc21` [Example 37] was tested, and the IPOHE herbicidal rating ([1]; rate 0.016 kg/ha) was 0.0, the IPOHE herbicidal rating ([1]; rate 0.032 kg/ha) was 0.0 and the IPOHE herbicidal rating ([1]; rate 0.062 kg/ha) was 0.0. It also gave an IPOHE herbicidal rating ([1]; rate 0.125 kg/ha) of 5.0, a GLXMAW herbicidal rating (GLXMAW Soybean, Williams [2]; rate 0.016 kg/ha) of 0.0 and a GLXMAW herbicidal rating (GLXMAW Soybean, Williams [2]; rate 0.032 kg/ha) of 0.0. The GLXMAW herbicidal rating (GLXMAW Soybean, Williams [2]; rate 0.062 kg/ha) was 0.0, the GLXMAW herbicidal rating (GLXMAW Soybean, Williams [2]; rate 0.125 kg/ha) was 0.0 and the “Postemergence herbicidal rating ABUTH” value (ABUTH Velvetleaf; 0.008 kg/ha) was 0.0. For the same compound, the “Postemergence herbicidal rating ABUTH” value (ABUTH Velvetleaf; 0.016 kg/ha) was 3.0, the “Postemergence herbicidal rating ABUTH” value (ABUTH Velvetleaf; 0.032 kg/ha) was 5.0 and the “Postemergence herbicidal rating ABUTH” value (ABUTH Velvetleaf; 0.062 kg/ha) was 9.0. For the same compound, the “Postemergence herbicidal rating CHEAL” value ([3]; 0.008 kg/ha) was 0.0, the “Postemergence herbicidal rating CHEAL” value ([3]; 0.016 kg/ha) was 0.0 and the “Postemergence herbicidal rating CHEAL” value ([3]; 0.032 kg/ha) was 4.0. The “Postemergence herbicidal rating CHEAL” value ([3]; 0.062 kg/ha) was 4.0, the CASOB herbicidal rating (CASOB Sicklepod [4]; rate 0.016 kg/ha) was 0.0 and the CASOB herbicidal rating (CASOB Sicklepod [4]; rate 0.032 kg/ha) was 0.0. The CASOB herbicidal rating (CASOB Sicklepod [4]; rate 0.062 kg/ha) was 0.0, the CASOB herbicidal rating (CASOB Sicklepod [4]; rate 0.125 kg/ha) was 0.0 and the GALAP herbicidal rating (GALAP Galium [5]; rate 0.016 kg/ha) was 0.0. For the same compound, the GALAP herbicidal rating (GALAP Galium [5]; rate 0.032 kg/ha) was 0.0, the GALAP herbicidal rating (GALAP Galium [5]; rate 0.062 kg/ha) was 0.0 and the GALAP herbicidal rating (GALAP Galium [5]; rate 0.125 kg/ha) was 0.0. The “Postemergence herbicidal rating IPOHE” value ([6]; 0.008 kg/ha) was 3.0, the “Postemergence herbicidal rating IPOHE” value ([6]; 0.016 kg/ha) was 9.0 and the “Postemergence herbicidal rating IPOHE” value ([6]; 0.032 kg/ha) was 9.0. The “Postemergence herbicidal rating IPOHE” value ([6]; 0.062 kg/ha) was 9.0, the “Postemergence herbicidal rating GALAP” value (GALAP Galium [7]; 0.008 kg/ha) was 0.0 and the “Postemergence herbicidal rating GALAP” value (GALAP Galium [7]; 0.016 kg/ha) was 0.0. For the same compound, the “Postemergence herbicidal rating GALAP” value (GALAP Galium [7]; 0.032 kg/ha) was 0.0, the “Postemergence herbicidal rating GALAP” value (GALAP Galium [7]; 0.062 kg/ha) was 2.0 and the SETVI herbicidal rating (SETVI Foxtail, Green; rate 0.016 kg/ha) was 0.0. The SETVI herbicidal rating (SETVI Foxtail, Green; rate 0.032 kg/ha) was 0.0, the SETVI herbicidal rating (SETVI Foxtail, Green; rate 0.062 kg/ha) was 0.0 and the SETVI herbicidal rating (SETVI Foxtail, Green; rate 0.125 kg/ha) was 8.0. The ORYSAT herbicidal rating (ORYSAT Rice, Tebonnet; rate 0.016 kg/ha) was 0.0, the ORYSAT herbicidal rating (ORYSAT Rice, Tebonnet; rate 0.032 kg/ha) was 0.0 and the ORYSAT herbicidal rating (ORYSAT Rice, Tebonnet; rate 0.062 kg/ha) was 0.0. The ORYSAT herbicidal rating (ORYSAT Rice, Tebonnet; rate 0.125 kg/ha) was 0.0, the CHEAL herbicidal rating ([8]; rate 0.062 kg/ha) was 0.0 and the CHEAL herbicidal rating ([8]; rate 0.125 kg/ha) was 9.0. For the same compound, the “Postemergence herbicidal rating CASOB” value (CASOB Sicklepod [9]; 0.008 kg/ha) was 0.0, the “Postemergence herbicidal rating CASOB” value (CASOB Sicklepod [9]; 0.016 kg/ha) was 0.0 and the “Postemergence herbicidal rating CASOB” value (CASOB Sicklepod [9]; 0.032 kg/ha) was 0.0. The “Postemergence herbicidal rating CASOB” value (CASOB Sicklepod [9]; 0.062 kg/ha) was 0.0 and the “Postemergence herbicidal rating GLXMAW” value (GLXMAW Soybean, Williams [10]) was 3.5.
